Measurements from patent US20230212549A1, “COMPOUNDS COMPRISING A […] LIGAND AND USE THEREOF” (priority 2021, published 2023).
Numbered stars: 1 amine (or outer) side, 2 acyl side, 3 side chain; on linkers, the order of the positions; unused ones are H or OH. Bridge positions count the residues as written; N and C are the ends. Square brackets hold non-standard residues; d marks the D form. Peptide text beside a SMILES is read from it. * marks the point of attachment. ξ: configuration not given here. X13 = O=C(O)CN1CCN(CC(=O)O)CCN(CC(=O)N2CCN(Cc3cc(C[*:1])cc(C[*:2])c3)CC2)CCN(CC(=O)O)CC1; X12 = O=C(O)CN1CCN(CC(=O)O)CCN(CC(=O)NCCCOCCOCCOCCCN*)CCN(CC(=O)O)CC1; X10 = O=C(O)CN1CCN(CC(=O)O)CCN(C(CCC(=O)NCCCOCCOCCOCCCN*)C(=O)O)CC1; Pro(trans-4-F) = O=C(O)[C@@H]1C[C@@H](F)CN1; Oic = O=C(O)[C@@H]1C[C@@H]2CCCC[C@@H]2N1; 1Nal = N[C@@H](Cc1cccc2ccccc12)C(=O)O; mXylylene = c1cc(C[*:1])cc(C[*:2])c1; NMeF = CN[C@@H](Cc1ccccc1)C(=O)O; X29 = O=C(CN1CCN([*:1])CC1)[*:2]; Suc = O=C(CCC(=O)[*:2])[*:1]; Nle = CCCC[C@H](N)C(=O)O; X2 = NCCNCC(CNCCN)C(=O)*; Hexanoyl = CCCCCC(=O)*; ξC = NC(CS)C(=O)O; βAla = NCCC(=O)O

Experiments:
Human recombinant FAP = Human recombinant FAP (Homo sapiens, UniProt Q12884); assay: FRET-based FAP protease activity assay; assay type: biochemical; design: purchased R&D systems 3715-SE
Sequence of Human recombinant FAP (Q12884 whole entry): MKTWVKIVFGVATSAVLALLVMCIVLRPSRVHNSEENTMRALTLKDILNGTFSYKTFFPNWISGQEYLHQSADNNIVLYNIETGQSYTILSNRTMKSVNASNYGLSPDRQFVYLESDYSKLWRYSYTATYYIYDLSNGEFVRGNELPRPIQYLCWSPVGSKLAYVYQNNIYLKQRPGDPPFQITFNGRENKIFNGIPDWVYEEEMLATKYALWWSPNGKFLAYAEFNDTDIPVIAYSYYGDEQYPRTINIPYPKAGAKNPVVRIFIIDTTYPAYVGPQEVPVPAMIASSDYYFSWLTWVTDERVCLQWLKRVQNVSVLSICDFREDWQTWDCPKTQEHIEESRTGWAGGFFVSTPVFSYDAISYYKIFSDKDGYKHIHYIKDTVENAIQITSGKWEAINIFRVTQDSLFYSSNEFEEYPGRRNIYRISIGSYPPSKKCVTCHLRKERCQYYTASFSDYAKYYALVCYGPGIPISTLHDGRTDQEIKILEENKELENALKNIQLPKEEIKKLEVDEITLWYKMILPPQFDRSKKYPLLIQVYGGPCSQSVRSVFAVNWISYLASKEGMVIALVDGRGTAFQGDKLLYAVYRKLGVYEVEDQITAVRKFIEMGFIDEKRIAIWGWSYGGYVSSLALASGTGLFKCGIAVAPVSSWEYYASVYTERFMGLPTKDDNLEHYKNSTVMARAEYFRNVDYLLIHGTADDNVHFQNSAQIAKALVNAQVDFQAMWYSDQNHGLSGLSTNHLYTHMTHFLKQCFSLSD

[1] = molecular target: T1, FAP-expressing human WI-38 fibroblasts (Homo sapiens, UniProt Q12884); assay: Competitive FACS binding assay
T1 construct: FAP-expressing human WI-38 fibroblasts (ECACC) were cultured in EMEM; host or cells: WI-38 human fibroblasts
T1 sequence (Q12884 whole entry): as above
Description: Cells were analyzed in an Attune NxT flow cytometer. […] […].
Cells were analyzed in an Attune NxT flow cytometer. […]

[2] = pIC50 Category (activity), Recombinant human FAP
[3] = pIC50 Category (Activity), FRET-based FAP protease activity assay, recombinant human FAP, 37° C.

SMILES	IC50 [1] [nM]	IC50 (Human recombinant FAP; pIC50 (highest activity categories), text on Table 9 categories (FACS binding and FAP activity assay)) [nM]	IC50 (Human recombinant FAP; [3]) [nM]	IC50 (Human recombinant FAP; pIC50 Category (Activity), FRET-peptide substrate, 37° C.) [nM]	IC50 (Human recombinant FAP; [2]) [nM]
CCCC[C@H](NC(=O)CCC(=O)NCCCOCCOCCOCCCNC(=O)CCC(C(=O)O)N1CCN(CC(=O)O)CCN(CC(=O)O)CC1)C(=O)N[C@H]1CSCc2cccc(c2)CSCC(C(N)=O)NC(=O)[C@H](Cc2ccccc2)NC(=O)[C@H](CCC(=O)O)NC(=O)[C@H]([C@@H](C)O)NC(=O)[C@@H]2CCCN2C(=O)[C@@H]2CCCN2C1=O (stereo partly drawn) [3BP-4743, NODAGA-Ttds-Nle-[Cys(3MeBn)-Pro-Pro-Thr-Glu-Phe-Cys]-NH2] ({X10-Suc}-[Nle]CPPTEF[ξC]-NH2; linker 2-8 via mXylylene)	10 to 79.4				10 to 79.4
CCCC[C@H](NC(=O)CCNC(=O)CN1CCN(C(=O)C(CNCCN)CNCCN)CC1)C(=O)N[C@H]1CSCc2cccc(c2)CSC[C@@H](C(=O)O)NC(=O)[C@H](Cc2ccccc2)NC(=O)[C@H](CCC(=O)O)NC(=O)[C@H]([C@@H](C)O)NC(=O)[C@@H]2CCCN2C(=O)[C@@H]2CCCN2C1=O [3BP-4783, N4Ac-PPAc-Bal--Nle-[C(3MeBn)-PPTEFC]-OH] (X2-[X29][βAla][Nle]CPPTEFC-OH; linker 4-10 via mXylylene)	> 1000				> 1000
CCCC[C@H](NC(=O)[C@H](CCC(=O)NC[C@H](O)[C@@H](O)[C@H](O)[C@H](O)CO)NC(=O)CCC(=O)NCCCOCCOCCOCCCNC(=O)C(CNCCN)CNCCN)C(=O)N[C@H]1CSCc2cccc(c2)CSC[C@@H](C(=O)O)NC(=O)[C@H](Cc2ccccc2)NC(=O)[C@H](CCC(N)=O)NC(=O)[C@H]([C@@H](C)O)NC(=O)[C@@H]2CCCN2C(=O)[C@@H]2CCCN2C1=O [3BP-4248, N4Ac-Ttds-Glu(AGLU′)-Nle-[Cys-(3MeBn)-Pro-Pro-Thr-Gln-Phe-Cys]-OH]	> 1000			> 1000	
CCCCCC(=O)N[C@H]1CSCc2cc(cc(CN3CCN(C(=O)CN4CCN(CC(=O)O)CCN(CC(=O)O)CCN(CC(=O)O)CC4)CC3)c2)CSC[C@@H](C(=O)N[C@@H](CC(=O)O)C(N)=O)NC(=O)[C@@H]2CCCN2C(=O)[C@H](Cc2ccccc2)NC(=O)[C@@H]2CCCN2C(=O)[C@H](CCC(N)=O)NC(=O)[C@H]([C@@H](C)O)NC1=O [3BP-3856, Hex-[Cys(tMeBn(DOTA-PP))-Thr-Gln-Pro-Phe-Pro-Cys]-Asp-NH2] (Hexanoyl-CTQPFPCD-NH2; linker 1-7 via X13)	> 1000		> 1000		
CCCCCC(=O)N[C@H]1CSCc2cccc(c2)CSC[C@@H](C(N)=O)NC(=O)[C@H](Cc2ccccc2)NC(=O)[C@H](CCC(=O)O)NC(=O)[C@H]([C@@H](C)O)NC(=O)[C@@H]2C[C@@H](F)CN2C(=O)[C@@H]2CCCN2C1=O [3BP-3352, Hex-[Cys(3MeBn)-Pro-4Tfp-Thr-Glu-Phe-Cys]-NH2] (Hexanoyl-CP[Pro(trans-4-F)]TEFC-NH2; linker 1-7 via mXylylene)	100 to 794		10 to 79.4		

Second part, led by results:

IC50 [1] [nM]	IC50 (Human recombinant FAP; pIC50 (highest activity categories), text on Table 9 categories (FACS binding and FAP activity assay)) [nM]	IC50 (Human recombinant FAP; [3]) [nM]	IC50 (Human recombinant FAP; pIC50 Category (Activity), FRET-peptide substrate, 37° C.) [nM]	SMILES	IC50 (Human recombinant FAP; [2]) [nM]
< 10	< 10	< 10		CSCC[C@H](NC(=O)CCC(=O)NCCCOCCOCCOCCCNC(=O)CN1CCN(CC(=O)O)CCN(CC(=O)O)CCN(CC(=O)O)CC1)C(=O)N[C@H]1CSCc2cccc(c2)CSC[C@@H](C(=O)N[C@@H](CC(=O)O)C(=O)N[C@@H](Cc2c[nH]cn2)C(=O)N[C@@H](Cc2ccccc2)C(=O)N[C@@H](CCCNC(=N)N)C(=O)N[C@@H](CC(=O)O)C(N)=O)NC(=O)[C@H](Cc2ccccc2)NC(=O)[C@H](CCC(=O)O)NC(=O)[C@H]([C@@H](C)O)NC(=O)[C@@H]2CCCN2C(=O)[C@@H]2CCCN2C1=O [3BP-3169, DOTA-Ttds-Met-[Cys(3MeBn)-Pro-Pro-Thr-Glu-Phe-Cys]-Asp-His-Phe-Arg-Asp-NH2] ({X12-Suc}-MCPPTEFCDHFRD-NH2; linker 2-8 via mXylylene)	
10 to 79.4		10 to 79.4		CCCCCC(=O)N[C@H]1CSCc2cccc(c2)CSC[C@@H](C(N)=O)NC(=O)[C@H](Cc2cccc3ccccc23)NC(=O)[C@H](CCC(=O)O)NC(=O)[C@H]([C@@H](C)O)NC(=O)[C@@H]2CCCN2C(=O)[C@@H]2CCCN2C1=O [3BP-3361, Hex-[Cys(3MeBn)-Pro-Pro-Thr-Glu-1Ni-Cys]-NH2] (Hexanoyl-CPPTE[1Nal]C-NH2; linker 1-7 via mXylylene)	
100 to 794		100 to 794		CSCC[C@H](NC(C)=O)C(=O)N[C@H]1CSCc2cccc(c2)CSC[C@@H](C(=O)N[C@@H](CC(=O)O)C(=O)N[C@@H](Cc2c[nH]cn2)C(=O)N[C@@H](Cc2ccccc2)C(=O)N[C@@H](CCCNC(=N)N)C(=O)N[C@@H](CC(=O)O)C(N)=O)NC(=O)[C@H](Cc2ccccc2)NC(=O)[C@H](CCC(=O)O)NC(=O)[C@H]([C@@H](C)O)NC(=O)[C@@H]2C[C@@H]3CCCC[C@@H]3N2C(=O)[C@@H]2CCCN2C1=O [3BP-3217, Ac-Met-[Cys(3MeBn)-Pro-Oic-Thr-Glu-Phe-Cys]-Asp-His-Phe-Arg-Asp-NH2] (Ac-MCP[Oic]TEFCDHFRD-NH2; linker 2-8 via mXylylene)	
> 1000		100 to 794		CCCCCC(=O)N[C@H]1CSCc2cccc(c2)CSC[C@@H](C(N)=O)NC(=O)[C@H](Cc2ccccc2)N(C)C(=O)[C@H](CCC(=O)O)NC(=O)[C@H]([C@@H](C)O)NC(=O)[C@@H]2CCCN2C(=O)[C@@H]2CCCN2C1=O [3BP-3358, Hex-[Cys(3MeBn)-Pro-Pro-Thr-Glu-Nmf-Cys]-NH2] (Hexanoyl-CPPTE[NMeF]C-NH2; linker 1-7 via mXylylene)	
